In article PMC4072041 (Nuclear medicine and biology, 2014):

Legend:
CRF1 receptor = settings: earlier CRF1 ligand; cited from earlier work
CRF1 vs. CRF2 receptors = settings: stated in method, no reference given; cited from earlier work
[125I]ovine-CRF = target: T1, [125I]ovine-CRF (Ovis aries, UniProt P01142, 125I-labelled CRF); assay: radioligand binding
T1 chain: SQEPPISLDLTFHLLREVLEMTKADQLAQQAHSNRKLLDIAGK

CCC(COC)n1nnc2c(Nc3ccc(OC)cc3C)nc(C)cc21 (racemic) [[^3H]SN003, (+/−)-N-[2-methyl-4-methoxyphenyl]-1(1-(methoxymethyl)propyl)-6-methyl-1H-1,2,3-triazolo[4,5-c]pyridin-4-amine]
ratio of CRF1 receptor-specific to non-specific binding (CRF1 receptor): about 1

ovine-CRF
selective for CRF1 vs. CRF2 (CRF1 vs. CRF2 receptors): > 100 fold

B1: CRF1 receptor (protein)
chain: SLQDQRCENLSLTSNVSGLQCNASVDLIGTCWPRSPAGQLVVRPCPAFFYGVRYNTTNNGYRECLANGSWAARVNYSECQEILNEEKKSKVHYHVAVIINYLGHCISLVALLVAFVLFLRLRSIRCLRNIIHWNLISAFILRNATWFVVQLTVSPEVHQSNVAWCRLVTAAYNYFHVTNFFWMFGEGCYLHTAIVLTYSTDRLRKWMFVCIGWGVPFPIIVAWAIGKLHYDNEKCWFGKRPGVYTDYIYQGPMILVLLINFIFLFNIVRILMTKLRASTTSETIQYRKAVKATLVLLPLLGITYMLFFVNPGEDEVSRVVFIYFNSFLESFQGFFVSVFYCFLNSEVRSAIRKRWRRWQDKHSIRARVARAMSIPTSPTRVSFHSIKQSTAV
Kd ([125I]ovine-CRF): 0.45 nM
